Data: patent US20110178015A1, “METHODS OF TREATMENT USING BIASED LIGANDS FOR RECEPTORS SUCH AS THE PTH RECEPTOR” (priority 2007, published 2011)
“Also recorded” adds a separate entry of the source.

Assays:
[1] = target: T1, endogenous PTH1R (Mus musculus, UniProt P41593); test: cAMP accumulation in primary osteoblasts (POB); type: cell-based, mice; conditions: 100 nM PTH(1-34) or 1 μM PTH-βarr, 5 min
T1 construct: stimulation of endogenous PTH1R in primary murine osteoblasts (POB); endogenous in cells; host or cells: primary osteoblasts (POB) from WT and β-arrestin 2−/− C57BL/6 mice
T1 sequence (P41593 27-591): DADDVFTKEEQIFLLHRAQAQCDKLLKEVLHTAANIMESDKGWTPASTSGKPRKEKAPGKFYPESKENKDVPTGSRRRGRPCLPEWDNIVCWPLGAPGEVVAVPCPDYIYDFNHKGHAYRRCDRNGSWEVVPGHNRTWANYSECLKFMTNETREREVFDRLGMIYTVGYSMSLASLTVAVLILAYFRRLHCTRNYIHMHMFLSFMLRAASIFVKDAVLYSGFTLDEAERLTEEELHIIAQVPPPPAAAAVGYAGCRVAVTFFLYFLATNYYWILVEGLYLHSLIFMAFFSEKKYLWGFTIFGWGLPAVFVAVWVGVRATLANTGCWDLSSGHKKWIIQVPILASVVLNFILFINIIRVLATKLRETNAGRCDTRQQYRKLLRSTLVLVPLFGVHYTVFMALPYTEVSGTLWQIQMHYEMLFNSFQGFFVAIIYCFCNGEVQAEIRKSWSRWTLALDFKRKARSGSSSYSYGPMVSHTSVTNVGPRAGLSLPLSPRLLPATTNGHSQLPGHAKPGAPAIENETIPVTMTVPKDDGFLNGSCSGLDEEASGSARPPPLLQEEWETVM
Procedure: FIG. 1. […] Cells were treated with 100 nM PTH(1-34) (PTH) or 1 μM PTH-βarr. […] Data correspond to the mean±SEM from four independent experiments. (***, P<0.001 compared with the nonstimulated WT POB; †††, P<0.001; ††, P<0.01 compared with the non-stimulated β-arrestin 2−/− POBs).
The increased basal cAMP in the β-arrestin cells is likely due to the loss of β-arrestin mediated desensitization of PTH1R and/or other Gs coupled 7TMRs.
There was no significant difference in cAMP generated between WT and β-arrestin 2−/−POB at 5 min.

[2] = tested on: WT and β-arrestin 2−/− mice; test: Serum osteocalcin, marker of bone formation; type: in vivo; conditions: 4 weeks of treatment
Procedure: (§1) FIG. 5. PTH-βarr increases serum osteocalcin and has no effect on urine Deoxypyridinoline (DPD) excretion. (a) Serum osteocalcin, a biochemical marker of bone formation was measured in WT and β-arrestin 2−/− mice after 4 weeks of treatment with vehicle, PTH (1-34) (PTH) or PTH-βarr. […] There was no increase in serum osteocalcin in the arrestin 2−/− mice treated with PTH-βarr compared to placebo. […] (b) 24 hour urine DPD, a marker of bone degradation and bone resorption, was also measured in WT and β-arrestin 2−/− mice after 4 weeks of treatment with vehicle, PTH or PTH-βarr. […] Data represent the mean±SEM of at least 7 independent mouse measurements. (***, P<0.001; *, P<0.05; compared with vehicle treated WT mice; †††, P<0.001; ††, P<0.01 compared with vehicle treated β-arrestin 2−/− mice).
To delineate the cellular mechanisms contributing to the metabolic effects of PTH(1-34) and PTH-βarr administration in WT and β-arrestin 2−/− mice, serum and urine markers of bone turnover were assessed.

[3] = tested on: WT and β-arrestin 2−/− mice; test: qCT of the midfemoral shaft (cortical bone); type: in vivo; conditions: for femoral periosteal circumference / midshaft cortical thickness: WT mice; for femoral periosteal circumference / midshaft cortical thickness / cortical thickness / periosteal circumference: 8 wks; for endosteal bone surfaces: WT or β-arrestin−/− mice, data not shown; for cortical thickness / periosteal circumference: β-arrestin 2−/− mice
Source text: Finally, the effects of PTH(1-34) and PTH-βarr on cortical bone were examined by qCT of the midfemoral shaft (FIGS. 3D and E). […] However the β-arrestin 2−/− mice had greater midshaft cortical thickness than vehicle treated WT mice. […] The biased agonist, PTH-βarr had no effect on these cortical indices in WT mice.

[4] = tested on: WT and β-arrestin 2−/− mice; test: 24 hour urine deoxypyridinoline (DPD), marker of bone resorption; type: in vivo; conditions: 4 weeks of treatment
Procedure: as §1
265. 24 hour urine deoxypyridinoline (DPD), a marker of bone degradation and bone resorption, was also measured. […] The increase in urine DPD excretion in the PTH(1-34) treated β-arrestin 2−/− mice compared to WT further supports the hypothesis that osteoblast-osteoclast coupling is meditated primarily through G protein dependent mechanisms that are disinhibited in the absence of β-arrestin 2.

[5] = tested on: WT and β-arrestin 2−/− mice; test: Quantitative microCT of the lumbar spine (trabecular bone); type: in vivo; conditions: for percent increase in Tb bone density: vs vehicle, 8 weeks
Source text: FIG. 4. β-arrestin 2 dependent signaling contributes to increases in trabecular bone but not cortical bone. Quantitative microCT of the lumbar spine was used to determine the effect vehicle, PTH (1-34) (PTH), or PTH-barr on (a) trabecular bone (Tb) density (BV/TV), (b) Tb thickness and (c) Tb number in WT and β-arrestin 2−/− mice after 8 wks of treatment. PTH and PTH-βarr increased tb density, tb thickness, and tb number in WT treated animals. The effects of PTH-βarr were absent in the β-arrestin −/− animals consistant with a b-arrestin mediated mechanism of anabolic bone formation. Data represent the mean±SEM of at least 7 independent mouse measurements. (***, P<0.001; **, P<0.01; *, P<0.05 compared with vehicle treated WT mice; if, P<0.01; t, P<0.05 compared with vehicle treated β-arrestin 2−/− mice).
Quantitative microCT (qCT) measurements of the lumbar spine were acquired from WT and β-arrestin 2−/− mice after 8 weeks of treatment with vehicle, PTH(1-34), or PTH-βarr. There was no significant difference in the overall trabecular bone density (BV/TV) between vehicle treated WT and β-arrestin 2−/− mice (FIG. 3A). […] These differences in trabecular bone architecture in sham treated animals reflect two potential contributing processes 1) the loss of β-arrestin mediated signaling and 2) the exaggeration of Gs signaling due to the loss of β-arrestin desensitization.

[6] = tested on: PTH1 receptor; conditions: cited from earlier work
[7] = WT mice, 8 weeks of daily treatment
[8] = β-arrestin 2−/− mice, 8 weeks of daily treatment
[9] = Gardella 1996, Sneddon 2004, Bisello 2002
[10] = WT mice, 8 weeks of daily treatment, listed as PTH

Substance: (D-Trp12, Tyr34)-PTH(7-34) [PTH-βarr]
- cAMP accumulation ([1]; WT POB): unable to stimulate cAMP; also recorded: did not increase cAMP
- cAMP accumulation ([1]; β-arrestin 2−/− POB): decreases basal cAMP levels; also recorded: significantly decreased
- serum osteocalcin vs vehicle ([2]; WT mice): significantly increased
- serum osteocalcin vs vehicle ([2]; β-arrestin 2−/− mice): no increase; also recorded: no significant change
- femoral periosteal circumference [3]: no effect
- midshaft cortical thickness [3]: no effect
- endosteal bone surfaces [3]: no significant effects
- cortical thickness [3]: significantly decreased
- periosteal circumference [3]: significantly decreased
- 24 hour urine DPD vs vehicle ([4]; WT mice): no significant effect
- 24 hour urine DPD vs vehicle ([4]; β-arrestin 2−/− mice): no significant effect
- lumbar spine trabecular bone density (BV/TV) vs vehicle [5, 7]: increased; also recorded: significant increase
- trabecular number vs vehicle [5, 7]: increased; also recorded: significant increases
- trabecular thickness vs vehicle [5, 7]: increased; also recorded: significant increases
- trabecular number vs vehicle [5, 8]: absent
- PTH1 receptor-Gs coupling / cAMP production [6, 9]: inverse agonist
- arrestin-dependent sequestration / β-arrestin recruitment [6, 9]: promoting arrestin-dependent sequestration
- β-arrestin-dependent ERK1/2 activation ([6]; in vitro, Gesty-Palmer 2006): elicit β-arrestin-dependent ERK1/2 activation

Substance: PTH(1-34) [reference compound]
- cAMP accumulation ([1]; WT POB): robust increases
- cAMP accumulation ([1]; WT POB, listed as PTH): robust increase
- cAMP accumulation ([1]; β-arrestin 2−/− POB): robust increases
- cAMP accumulation ([1]; β-arrestin 2−/− POB, listed as PTH): robust increase
- serum osteocalcin vs vehicle ([2]; WT mice): significantly increased
- serum osteocalcin vs vehicle ([2]; WT mice, listed as PTH): significantly increase
- serum osteocalcin vs vehicle ([2]; β-arrestin 2−/− mice): increased
- femoral periosteal circumference [3]: increased
- midshaft cortical thickness [3]: increased
- endosteal bone surfaces [3]: no significant effects
- cortical thickness [3]: no significant effect
- periosteal circumference [3]: no significant effect
- 24 hour urine DPD vs vehicle ([4]; WT mice): significantly increased
- 24 hour urine DPD vs vehicle ([4]; β-arrestin 2−/− mice): significantly increased
- 24 hour urine DPD vs vehicle ([4]; β-arrestin 2−/− mice, listed as PTH): increase
- lumbar spine trabecular bone density (BV/TV) vs vehicle [5, 7]: significantly increased
- trabecular number vs vehicle [5, 7]: significant increases
- trabecular thickness vs vehicle [5, 7]: significant increases
- lumbar spine trabecular bone density (BV/TV) vs vehicle [5, 10]: increased
- trabecular number vs vehicle [5, 10]: increased
- trabecular thickness vs vehicle [5, 10]: increased
- percent increase in Tb bone density ([5]; WT mice): 38%
- trabecular bone density (BV/TV) vs vehicle [5, 8]: net increase
- trabecular thickness vs vehicle [5, 8]: significant increases
- percent increase in Tb bone density ([5]; β-arrestin 2−/− mice): 17%
